ChEMBL document CHEMBL2157896, “Engineering pH-gated transitions for selective and efficient double-strand DNA photocleavage in hypoxic tumors” (J Med Chem, 2011)
The source made the active and inactive calls. The rule behind the calls is not given here.

Columns and labels:
Format in all cases: nucleic-acid assay
Nucleic Acid [1] = test: Induction of DNA cleavage in Escherichia coli pBR322 assessed as form3/form2 ratio at 15 uM at pH 6 to 9 after 10 mins of UV irradiation
Nucleic Acid [2] = test: Induction of photochemical DNA cleavage in Escherichia coli pBR322 assessed as disappearance of supercoiled DNA at 15 uM in pH 6.0 phosphate buffer after 10 mins of UV irradiation
Nucleic Acid [3] = test: Induction of photochemical DNA cleavage in Escherichia coli pBR322 assessed as disappearance of supercoiled DNA at 15 uM in pH 7.0 phosphate buffer after 10 mins of UV irradiation
Nucleic Acid [4] = test: Induction of photochemical DNA cleavage in Escherichia coli pBR322 assessed as form I level at 15 uM in pH 6.0 phosphate buffer measured after 1 min of UV irradiation
Nucleic Acid [5] = test: Induction of photochemical DNA cleavage in Escherichia coli pBR322 assessed as form I level at 15 uM in pH 7.0 phosphate buffer measured after 8 mins of UV irradiation
Nucleic Acid [6] = test: Induction of photochemical DNA cleavage in Escherichia coli pBR322 assessed as form 2 level at 15 uM in pH 8.0 phosphate buffer measured after 6 mins of UV irradiation
Nucleic Acid [7] = test: Induction of photochemical DNA cleavage in Escherichia coli pBR322 assessed as form 2 level at 15 uM in pH 8.0 phosphate buffer measured after 8 mins of UV irradiation
Nucleic Acid [8] = test: Induction of photochemical DNA cleavage in Escherichia coli pBR322 assessed as form 3 level at 15 uM in pH 6.0 phosphate buffer measured after 1 min of UV irradiation

NCCCC[C@H](N)C(=O)NCCCC[C@H](N)C(=O)Nc1ccc(C#Cc2c(F)c(F)nc(F)c2F)cc1.O=C(O)C(F)(F)F
Ratio (Nucleic Acid [1]): 2 | Activity (Nucleic Acid [2]): Active | Activity (Nucleic Acid [3]): Active | Activity (Nucleic Acid [4]): 30.2% | Activity (Nucleic Acid [5]): 20.9% | Activity (Nucleic Acid [6]): 59.2% | Activity (Nucleic Acid [7]): 45.6% | Activity (Nucleic Acid [8]): 17.1%
